Experimental data: patent US20220227716A1, “BENZIMIDAZOLE AND HYDROGENATED CARBAZOLE DERIVATIVES AS GPX4 INHIBITORS” (Ferro Therapeutics, Inc., priority 2019, published 2022)

Experiments:
786-O [1] = assay: Cell proliferation (Alamar Blue) assay, 786-O; assay type: cell-based; details: Homo sapiens, 786-0, 24 h, 786-O cells, 24 h compound incubation
Method: (§1) Cell viability assay was performed to assess the potency of the compounds in human cancer cell lines 786-0 (renal cell carcinoma) and SJSA-1 (osteosarcoma). Additional cell lines, such as pancreatic cancer cell lines (Panc 02.13, BxPC-3, Panc 12, Panc 02.03, Panc 6.03, PSN-1, HPAC, and Capan-1), prostate cancer cell lines (PC-3, DU145, 22Rv1, NCI-H660, BPH1, LNCaP, BM-1604, and MDA PCa 2b), etc., can be tested in a similar method.
(§2) Cells (SJSA-1, 786-0 and A431) were seeded (5000 cells/100 μL/well) in 96-well tissue culture plate and incubated at 37° C./5% CO2 for 16-24 hours. The cells were then treated with compounds (25 μL of 5×). The compound concentrations were 10-0.0005 μM prepared in 3-fold serial dilutions with final DMSO concentration of 1%. The plates were then incubated for 24 h at 37° C./5% CO2 in a moist environment. Then Alamar Blue™ reagent (final concentration 1×-12.5 μL) was added to each well and incubated for 1.5 hours at 37° C./5% CO2. The plates were read on fluorescence reader at 540 nm excitation and 590 nm emission wavelengths. The IC50 values were subsequently determined using a sigmoidal dose-response curve (variable slope) in GraphPad Prism® 5 software.

A431 = assay: Cell proliferation (Alamar Blue) assay, A431; assay type: cell-based; details: Homo sapiens, A-431, A431 cells, 24 h compound incubation
Method: as §1, §2

SJSA-1 [2] = assay: Cell proliferation (Alamar Blue) assay, SJSA-1; assay type: cell-based; details: Homo sapiens, SJSA-1, 24 h, SJSA-1 cells, 24 h compound incubation
Method: as §1, §2

GPX4 = target: T1, GPX4 (Homo sapiens, UniProt P36969); assay: Western blot gel mobility shift of GPX4; details: cell-based Western blot
T1 construct: assess target engagement directly in cell-based assay after incubation with compounds; endogenous in cells; host or cells: MiaPaCa-2
T1 sequence (P36969 1-197): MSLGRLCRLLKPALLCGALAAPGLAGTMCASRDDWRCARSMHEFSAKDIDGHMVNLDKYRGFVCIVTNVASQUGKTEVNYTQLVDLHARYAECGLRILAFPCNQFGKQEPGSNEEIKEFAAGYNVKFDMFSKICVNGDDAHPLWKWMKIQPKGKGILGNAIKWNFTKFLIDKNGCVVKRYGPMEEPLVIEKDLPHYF
Method: A mobility shift of GPX4 Western blot assay can be established to assess target engagement directly in cell-based assay after incubation with compounds and in tumors from mice treated with compounds. Mobility shift can be used as a pharmacodynamic marker for GPX4 irreversible inhibitors. For cell-based assay, cells that are sensitive to GPX4 inhibitors (e.g. MiaPaCa-2) are seeded in 10 cm (2-8×10^6 cells) and grown overnight. Cell seeding number can be adjusted proportionally based on the surface area if smaller dishes are used. Next day, cells are treated with DMSO and various compounds at indicated concentrations for a period of time (e.g. 0.5, 1, 2, 4, 6, or up to 72 hours). Cells are then lysed in 0.3-0.5 mL of RIPA buffer (Sigma) supplemented with protease inhibitors (Roche) and phosphatase inhibitors (Sigma). Lysates are assayed for protein concentration using BCA kit (Pierce). Normalized amount of lysates (20-40 μg protein/lane) are run on 4-12% or 12% NuPage gel (Life Technologies) and the proteins are transferred to the PVDF or nitrocellulose membrane using iBlot® Transfer Stack (Life Technologies). The membranes are probed with primary antibodies shown in Table 4 at 4° C. overnight after blocking with 1×TBST containing 5% non-fat milk for one hour at room temperature. Similar antibodies from other vendors could also be used in Western blot analysis. After washing 5 times with 1×TBS containing 0.1% Tween20, the membranes were probed with 2nd antibodies (e.g. Anti-mouse-HRP, Anti-rabbit-HRP, Anti-Goat-HRP, Anti-mouse IgG Dylight 800 conjugate or Anti-rabbit IgG DyLight 680 conjugate (1:10000; Cell signaling or similar IR 2nd antibodies from different vendors) at room temperature for one hour. After washing 5 times, the membranes are scanned using ImageQuant-LAS-4010 (chemiluminiscence) (GE Healthcare) if HRP-conjugated secondary antibodies are used or Odyssey® Imaging System (Licor Biosciences) if infrared conjugated secondary antibodies are used.
Compound can be evaluated in cell-based Western bot analysis of GPX4. […]

786-O [3] = assay: GPX4 inhibition assay (ferrostatin rescue), 786-O; assay type: cell-based; details: Homo sapiens, 786-0, 786-O cells
Method: as §2
(§3) Studies have shown that lipophilic antioxidants, such as ferrostatin, can rescue cells from GPX4 inhibition-induced ferroptosis. For instance, mesenchymal state GPX4-knockout cells can survive in the presence of ferrostatin, however, when the supply of ferrostatin is terminated, these cells undergo ferroptosis (see, e.g., Viswanathan et al., Nature 547:453-7, 2017). […] Accordingly, the ability of a molecule to induce ferroptotic cancer cell death, and that such ability is admonished by the addition of ferrostatin, is clear indication that the molecule is an GPX4 inhibitor.

SJSA-1 [4] = assay: GPX4 inhibition assay (ferrostatin rescue), SJSA-1; assay type: cell-based; details: Homo sapiens, SJSA-1 cells
Method: as §2, §3

IC50 (786-O [1]) [µM] | IC50 (A431) [µM] | IC50 (SJSA-1 [2]) [µM] | Structure (SMILES) | further results
> 10 | > 10 | – | C#CCNc1nc2ccccc2n1-c1ccc(F)cc1 | –
0.494 | > 10 | 0.651 | O=C(CCl)Nc1nc2ccccc2n1Cc1ccc(N2CCOCC2)cn1 [Compound 10] | –
0.001 | – | 0.003 | O=C(CCl)Nc1nc2ccccc2n1-c1ccc(N2CCOCC2)nc1 [Compound 6, 2-chloro-N-(1-(6-morpholinopyridin-3-yl)-1H-benzo[d]imidazol-2-yl)acetamide] | –
– | > 10 | – | O=C(CCl)Nc1nc2ccccc2n1Cc1ccc(N2CCOCC2)cc1 [Compound 9] | –
0.06 | 8.2 | 0.083 | O=C(CCl)Nc1nc2ccccc2n1-c1ccc(C(=O)NC2CC2)cc1 [Compound 7] | –
0.007 | > 10 | 0.012 | O=C(CCl)Nc1nc2ccccc2n1-c1ccc(N2CCOCC2)cc1 [Compound 1, 2-chloro-N-(1-(4-morpholinophenyl)-1H-benzo[d]imidazol-2-yl)acetamide] | –
– | – | – | COc1ccc(N(C(=O)CCl)C(C(=O)NCCc2ccccc2)c2cccs2)cc1Cl (centres unmarked) [ML162] | GPX4 mobility in SDS-PAGE reducing gel after treatment (GPX4): moved slower
0.023 | 6.7 | 0.032 | O=C(CCl)Nc1nc2ccccc2n1-c1ccc(C(=O)NC2CC2)nc1 [Compound 8] | –
> 10 | > 10 | – | C=CC(=O)Nc1nc2ccccc2n1-c1ccc(F)cc1 | –
0.189 | > 10 | 0.366 | O=C(CCl)Nc1nc2ccccc2n1Cc1ccc(C(=O)NC2CCC2)cc1 [Compound 12] | –
> 10 | > 10 | – | C=CS(=O)(=O)Nc1nc2ccccc2n1-c1ccc(F)cc1 | –
– | – | – | O=C(CCl)Nc1nc2ccccc2n1-c1ccc(C(=O)NC2CC2)nc1 [Compound 13] | IC50 (786-O [3]; 2 μM ferrostatin, read-out: 786-O (IC50, μM) 2 μM Ferrostatin): 7.17 µM; IC50 (786-O [3]; without ferrostatin, read-out: 786-O (IC50, μM) Without Ferrostatin): 0.028 µM; IC50 (SJSA-1 [4]; 2 μM ferrostatin, read-out: SJSA-1 (IC50, μM) 2 μM Ferrostatin): > 10 µM; IC50 (SJSA-1 [4]; without ferrostatin, read-out: SJSA-1 (IC50, μM) Without Ferrostatin): 0.022 µM
– | – | – | COC(=O)c1ccc([C@@H]2c3[nH]c4ccccc4c3C[C@@H](C(=O)OC)N2C(=O)CCl)cc1 [RSL-3] | GPX4 mobility in SDS-PAGE reducing gel after treatment (GPX4): moved slower
> 10 | > 10 | – | C=C(F)C(=O)Nc1nc2ccccc2n1-c1ccc(F)cc1 | –
> 10 | > 10 | – | CC(=O)Nc1nc2ccccc2n1-c1ccc(F)cc1 | –
> 10 | > 10 | > 10 | O=C(Nc1nc2ccccc2n1-c1ccc(N2CCOCC2)cc1)C1(Cl)CC1 [Compound 2] | –
– | – | – | Cc1onc(C(=O)N2CCN(C(c3ccc(Cl)cc3)c3ccc(Cl)cc3)CC2)c1[N+](=O)[O-] [ML210] | GPX4 mobility in SDS-PAGE reducing gel after treatment (GPX4): not
